From BindingDB's records for doi:10.7270/Q2ZC817P (The Scripps Research Institute Molecular Screening Center, 2007) come the findings set out here.

Structures can show the parent of a compound that is named as a salt.

One may read the EC50 as the midpoint of the concentration-response curve.

One experiment deals with Sphingosine 1-phosphate receptor 1 (Homo sapiens, UniProt P21453). Put plainly: S1P1 agonism potentiation – cell-based, potentiator mode, 60K MLSMR set, dose response (AID 466).
Sphingosine 1-phosphate receptor 1, sequence (P21453 whole entry): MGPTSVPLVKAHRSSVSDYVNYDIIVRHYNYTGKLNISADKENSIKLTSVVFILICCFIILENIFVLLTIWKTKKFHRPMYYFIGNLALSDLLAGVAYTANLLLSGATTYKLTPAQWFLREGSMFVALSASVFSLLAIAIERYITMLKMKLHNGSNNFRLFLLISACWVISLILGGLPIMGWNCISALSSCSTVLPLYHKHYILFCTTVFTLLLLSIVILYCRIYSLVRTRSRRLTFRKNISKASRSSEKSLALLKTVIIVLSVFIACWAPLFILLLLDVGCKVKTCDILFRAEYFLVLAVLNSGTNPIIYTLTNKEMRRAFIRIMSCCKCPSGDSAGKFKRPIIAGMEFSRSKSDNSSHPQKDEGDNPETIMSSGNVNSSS
Details: not given
`O=C(NCc1ccc2c(c1)OCO2)C1CC(=O)N(C2CCCCCCC2)C1` (stereo not given) [1-cyclooctyl-5-keto-N-piperonyl-pyrrolidine-3-carboxamide]: the EC50 is over 95 µM.
In the case of `CCOc1ccc(-c2nc(CSCC(=O)N3CCN(c4cccc(OC)c4)CC3)c(C)o2)cc1` [1-[4-(3-methoxyphenyl)piperazino]-2-[(5-methyl-2-p-phenetyl-oxazol-4-yl)methylthio]ethanone], the EC50 turned out to be 7.42 µM.
On to `Cc1cc(C=c2sc3nc4ccccc4n3c2=O)c(C)n1-c1ccccn1` [2-[(2,5-dimethyl-1-pyridin-2-yl-pyrrol-3-yl)methylidene]-[1,3]thiazolo[3,2-a]benzimidazol-1-one], for which the EC50 came to 0.111 µM.
On to `COC(=O)c1ccc2c(=O)n(C3CCCCC3)c(SCC#N)nc2c1` [2-(cyanomethylthio)-3-cyclohexyl-4-keto-quinazoline-7-carboxylic acid methyl ester], for which the EC50 is 6.9 µM.
In the case of `Cc1ccc2c(c1)N(CC(=O)Nc1ccc3c(c1)OCCO3)C(=O)CO2` [MLS000074457], the EC50 was over 95 µM.
For the molecule `Cc1cc(C(=O)CSc2nnc(-c3ccncc3)n2-c2ccccc2)c(C)n1C` [2-[(4-phenyl-5-pyridin-4-yl-1,2,4-triazol-3-yl)sulfanyl]-1-(1,2,5-trimethylpyrrol-3-yl)ethanone], the EC50 stood at 2.23 µM.
As for `Cc1ccc(C(C)C)c(OCc2nc(-c3nonc3N)no2)c1` [4-[5-[(5-methyl-2-propan-2-yl-phenoxy)methyl]-1,2,4-oxadiazol-3-yl]-1,2,5-oxadiazol-3-amine], the EC50 turned out to be 1.12 µM.
Same read-out and setting: the same measure for `CCC(NC(=O)Nc1nnc(C(F)(F)F)s1)(C(F)(F)F)C(F)(F)F`: over 95 µM; for `Clc1ccc(NCn2cncn2)nc1`: over 95 µM.
As to `O=C(Nc1cccc(C(F)(F)F)c1)N1CCC(c2nc(-c3ccc(F)cc3)no2)CC1` [4-[3-(4-Fluoro-phenyl)-[1,2,4]oxadiazol-5-yl]-piperidine-1-carboxylic acid (3-trifluoromethyl-phenyl)-amide], the EC50 came to 6.42 µM.
As to `O=C(CSC1=NCCS1)Nc1ccnc2ccccc12` [2-(4,5-dihydro-1,3-thiazol-2-ylsulfanyl)-N-quinolin-4-yl-ethanamide], the EC50 turned out to be 2.55 µM.
On to `Cn1c(C(=O)N2CCCc3ccccc32)cc2sccc21` [(3,4-Dihydro-2H-quinolin-1-yl)-(4-methyl-4H-thieno[3,2-b]pyrrol-5-yl)-methanone], for which the EC50 amounted to 1.47 µM.
With `Cc1nn(Cc2ccc(Cl)c(Cl)c2)c(C)c1NC(=O)c1cc(CC(C)C)on1` [MLS000116412], the EC50 came out at 9.37 µM.
In the case of `CCCCOc1ncnc2c1[nH]c1ccc(F)cc12` [4-butoxy-8-fluoranyl-5H-pyrimido[5,4-b]indole], the EC50 came out at 3.07 µM.
Regarding `Oc1ccc(-c2nnc(SCC3CCCCC3)o2)cc1` [4-(5-Cyclohexylmethylsulfanyl-[1,3,4]oxadiazol-2-yl)-phenol], the EC50 was 0.437 µM.
The same measure, in the same setting: the same measure for `Oc1c(Cl)cc(Cl)cc1Sc1cc(Cl)cc(Cl)c1O`: 1.24 µM; for `Cc1cccc(-n2ncc3c(N(C)C4CCCCC4)ncnc32)c1` [MLS000100814]: over 95 µM.
For the molecule `CCOC(=O)c1cccc2c1-c1ccccc1C2N=O` (stereo not given) [9-hydroximinofluorene-4-carboxylic acid ethyl ester], the EC50 is 10.2 µM.
With `CCc1nnc(NC(=O)C2CCCCC2)s1` [MLS000104554], the EC50 is over 95 µM.
As for `COc1ccc(C(=O)C(CN2CCOCC2)c2ccccc2)cc1F` (stereo not given) [1-(3-Fluoro-4-methoxy-phenyl)-3-morpholin-4-yl-2-phenyl-propan-1-one], the EC50 was found to be 31.1 µM.
Regarding `N#CCCS(=O)(=O)c1nnnn1-c1ccccc1` [3-(1-phenyltetrazol-5-yl)sulfonylpropanenitrile], the EC50 is 3.55 µM.
For `N#Cc1nc(-c2ccc(OCc3ccccc3)cc2)oc1NCc1cccnc1` [2-(4-benzoxyphenyl)-5-(3-pyridylmethylamino)oxazole-4-carbonitrile], the EC50 turned out to be 9.76 µM.
Consider `O=C(c1cc(-c2ccco2)on1)N1CCN(C(c2ccccc2)c2ccccc2)CC1` [(4-benzhydrylpiperazin-1-yl)-[5-(furan-2-yl)-1,2-oxazol-3-yl]methanone], for which the EC50 worked out at 5.82 µM.
Turning to `CC1=NC(=O)NC(c2ccc(Cl)cc2)C1C(=O)OCc1ccc2c(c1)OCO2` (stereo not given) [1,3-benzodioxol-5-ylmethyl 4-(4-chlorophenyl)-6-methyl-2-oxidanylidene-3,4-dihydro-1H-pyrimidine-5-carboxylate], the EC50 is over 0.3 µM.
As to `CCOC(=O)C1CCN(c2ncnc3c2oc2ccc(Cl)cc23)CC1` [1-(8-chloro-4-benzofuro[3,2-d]pyrimidinyl)-4-piperidinecarboxylic acid ethyl ester], the EC50 was over 95 µM.
As for `O=C(Nc1ccc(OC(F)F)c(Cl)c1)Nc1ccc2c(c1)OCO2` [1-(1,3-benzodioxol-5-yl)-3-[3-chloro-4-(difluoromethoxy)phenyl]urea], the EC50 turned out to be 8.5 µM.
The same measure, in the same setting: the result for `O=C(Nc1ncc(Br)s1)C(Cc1ccccc1)n1cccc1` (stereo not given) [MLS000119027] reads 2.92 µM; that for `COc1cc(C#CC#CCN2CCCCC2)ccc1O` [2-methoxy-4-(5-piperidin-1-ylpenta-1,3-diynyl)phenol;hydrochloride], 7.1 µM; that for `COc1ccc(-n2nnnc2S(=O)(=O)CC(=O)N2CCCCC2)cc1` [2-[1-(4-methoxyphenyl)tetrazol-5-yl]sulfonyl-1-piperidin-1-ylethanone], 9.83 µM.
As to `Cc1ccc(OCc2nc(-c3ccccc3)no2)c(C)c1` [5-[(2,4-dimethylphenoxy)methyl]-3-phenyl-1,2,4-oxadiazole], the EC50 was determined as 1.96 µM.
As for `O=C(Nc1ccc(-c2noc(CCc3ccccc3)n2)cc1)c1cccnc1` [MLS000047253], the EC50 stood at 3.4 µM.
For the molecule `Cn1c(SCC(=O)Nc2ccc(N3CCOCC3)c(Cl)c2)nnc1-c1ccccc1` [MLS000089171], the EC50 stood at 2.06 µM.
With `CCOC(=O)c1sc2nc(NC(=O)C3CCCCC3)sc2c1C` [2-(cyclohexanecarbonylamino)-6-methyl-thieno[2,3-d]thiazole-5-carboxylic acid ethyl ester], the EC50 was over 30 µM.
In the case of `CC(=N)C(C#N)C(=O)CSc1nnc(SCc2ccc(Cl)cc2)s1` (stereo not given) [(E)-3-amino-2-[2-[[5-[(4-chlorobenzyl)thio]-1,3,4-thiadiazol-2-yl]thio]acetyl]but-2-enenitrile], the 50% effective concentration (EC50) was 9.63 µM.

The experiment is the same for the next values; noted with them: inactive by the depositor's call.
`Cc1cccc(OCCCCc2c(C)n[nH]c2C)c1` [SMR000103102]: the EC50 is 10.6 µM.
Same read-out and setting: the same measure for `Cc1ccc2nc(C(F)(F)F)c(C#N)c(N)c2c1` [4-amino-6-methyl-2-(trifluoromethyl)-3-quinolinecarbonitrile]: 12 µM; for `CC1=CC(C)(C)Nc2ccc(OC(=O)c3cccnc3)cc21` [(2,2,4-trimethyl-1H-quinolin-6-yl) pyridine-3-carboxylate]: 11 µM.
Consider `Cc1cc(C(=O)CN2C(=O)c3ccccc3C2=O)c(C)n1Cc1cccs1` [2-[2-[2,5-dimethyl-1-(2-thenyl)pyrrol-3-yl]-2-keto-ethyl]isoindoline-1,3-quinone], for which the EC50 is 21.4 µM.
For `O=C(CSCC(=O)N1CCCCC1)Nc1nc(-c2cccs2)cs1` [2-(2-oxidanylidene-2-piperidin-1-yl-ethyl)sulfanyl-N-(4-thiophen-2-yl-1,3-thiazol-2-yl)ethanamide], the EC50 worked out at 45.2 µM.
Still for that read-out and setting: the same measure for `CSc1ccc(S(=O)(=O)Nc2ccc3c(c2)OCCO3)cc1` [MLS000115922]: 18 µM; for `CCc1ccc(-c2nc(CSCC(=O)N3CCN(c4ccccn4)CC3)c(C)o2)cc1` [1-[({[2-(4-ethylphenyl)-5-methyl-1,3-oxazol-4-yl]methyl}thio)acetyl]-4-pyridin-2-ylpiperazine]: 11.5 µM; for `CCCCCn1c(=O)c(C(=O)NCc2ccncc2)c(O)c2ccccc21` [1-amyl-2-hydroxy-4-keto-N-(4-pyridylmethyl)quinoline-3-carboxamide]: 24.4 µM.
As for `COc1cccc(-c2nc(-c3ccc(NC(=O)c4cccnc4)cc3)no2)c1` [MLS000047254], the EC50 was determined as 22.1 µM.
In the case of `c1ccc(CSc2nnc(-c3cccs3)o2)cc1` [2-(benzylthio)-5-(2-thienyl)-1,3,4-oxadiazole], the half-maximal effective concentration (EC50) amounted to 20.4 µM.
For the molecule `C=CCn1c(C)cc(C(=O)CSc2nc3ccccc3o2)c1C` [1-(1-allyl-2,5-dimethyl-pyrrol-3-yl)-2-(1,3-benzoxazol-2-ylthio)ethanone], the EC50 was 10.3 µM.
On to `O=C(OC1CCCCC1)c1ccc(NC(=O)c2ccco2)cc1` [4-(2-furoylamino)benzoic acid cyclohexyl ester], for which the EC50 worked out at 12.2 µM.
For `Oc1ccc(N2CCN(c3ncnc4sc5c(c34)CCC5)CC2)cc1` [4-[4-(7,8-dihydro-6H-cyclopenta[4,5]thieno[1,2-c]pyrimidin-1-yl)-1-piperazinyl]phenol], the EC50 was determined as 10.6 µM.
Turning to `COc1ccc(Cc2nc(-c3ccc(-n4cccc4)cc3)no2)cc1OC` [3-(4-pyrrol-1-ylphenyl)-5-veratryl-1,2,4-oxadiazole], the EC50 worked out at 13.4 µM.
`CCOc1cc(-c2noc(-c3cccnc3)n2)ccc1OC` [3-(3-ethoxy-4-methoxy-phenyl)-5-(3-pyridyl)-1,2,4-oxadiazole]: the EC50 was 18.2 µM.
The same measure, in the same setting: the same measure for `Cc1cc(C(=O)N2CCN(C(c3ccccc3)c3ccccc3)CC2)no1` [(4-benzhydrylpiperazin-1-yl)-(5-methyl-1,2-oxazol-3-yl)methanone]: 19.1 µM.
Take `Cc1nc(C)c(C(=O)Nc2ccc(Oc3ccccc3)cc2)o1` [2,4-dimethyl-N-(4-phenoxyphenyl)-1,3-oxazole-5-carboxamide]: the EC50 was determined as 10.5 µM.
With `C=CCOC(=O)c1[nH]c2c(c1C)C(=O)CC(c1cc(OC)c(OC)c(OC)c1)C2` (stereo not given) [SMR000093465], the EC50 amounted to 11.1 µM.
As to `CCCOc1ccc(S(=O)(=O)NCc2ccc(OC)cc2)cc1` [MLS000104592], the EC50 is 19.8 µM.
Regarding `Cc1ccc(S(=O)(=O)Nc2ccc3ncccc3c2)cc1` [4-methyl-N-(6-quinolinyl)benzenesulfonamide], the EC50 is 10.7 µM.
Consider `Nc1c(C(=O)NC2CCCC2)sc2nc(-c3cccs3)ccc12` [3-Amino-6-thiophen-2-yl-thieno[2,3-b]pyridine-2-carboxylic acid cyclopentylamide], for which the EC50 worked out at 13.6 µM.
